In patent publication US11091501B2, “Heterocyclic compounds as RSV inhibitors” (Enanta Pharmaceuticals, Inc., priority 2017, dated 2021) one finds EC50 data, which are given here for 50 compounds.

The test system of the first assay is Human RSV-A (“Long” strain). Kind of assay: RSV in vitro cytoprotection assay (CPE, ATPlite) in HEp-2 cells. As to conditions: human respiratory syncytial virus, 96 h; HEp-2 cells, 4-day incubation, ATPlite readout; read-out: Human RSV-A (“Long” strain) EC50. The class given is cell-based. In outline:
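HEp-2 cells (8,000/well) given 2-fold serial compound dilutions in duplicate, then infected with sucrose-stabilised RSV-A Long stock. After 4 days, cell viability read by ATPlite luminescence, with a parallel uninfected plate for cytotoxicity. EC50 binned A<0.01 μM, B 0.01-0.05 μM, C>0.05 μM.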
The EC50 is the concentration that produces a half-maximal response. In the case of `O=C(Nc1ccc(C(=O)N2CCc3cc(-c4nc5ccccc5[nH]4)oc3-c3ccccc32)cc1)c1cc2c(nc1N1CC3(CCOCC3)C1)CCC2` [Example 260], the EC50 is less than 10 nM.

As for `Cc1cnc(N2CC3(CCOCC3)C2)c(C(=O)Nc2ccc(C(=O)N3CCc4sc(C(=O)Nc5c(F)cccc5F)cc4-c4ccccc43)cc2)c1` [Example 261], the EC50 was less than 10 nM.

Turning to `Cc1cnc(N2CC3(CCOCC3)C2)c(C(=O)Nc2ccc(C(=O)N3CCc4sc(-c5nc6ccccc6[nH]5)cc4-c4ccccc43)cc2)c1` [Example 262], the EC50 was 10 to 50 nM.

As for `O=C(Nc1c(F)cccc1F)c1cc2c(s1)CCN(C(=O)c1ccc(NC(=O)c3cc4c(nc3N3CC5(CCOCC5)C3)CCC4)cc1)c1ccccc1-2` [Example 263], the EC50 lay within 10 to 50 nM.

For `O=C(Nc1ccc(C(=O)N2CCc3sc(-c4nc5ccccc5[nH]4)cc3-c3ccccc32)cc1)c1cc2c(nc1N1CC3(CCOCC3)C1)CCC2` [Example 264], the EC50 was in the range of 10 to 50 nM.

On to `Cc1ccc(C(=O)Nc2ccc(C(=O)N3CCc4sc(C(=O)Nc5c(F)cccc5F)cc4-c4ccccc43)cc2)c(N2CC3(CCOCC3)C2)n1` [Example 265], for which the EC50 is greater than 50 nM.

For `Cc1ccc(C(=O)Nc2ccc(C(=O)N3CCc4sc(-c5nc6ccccc6[nH]5)cc4-c4ccccc43)cc2)c(N2CC3(CCOCC3)C2)n1` [Example 266], the EC50 was less than 10 nM.

On to `Cc1cnc(N2CC3(CCOCC3)C2)c(C(=O)Nc2ccc(C(=O)N3CCc4c(sc(C(=O)Nc5c(F)cccc5F)c4Cl)-c4ccccc43)cc2)c1` [Example 267], for which the EC50 is less than 10 nM.

`Cc1cnc(N2CC3(CCOCC3)C2)c(C(=O)Nc2ccc(C(=O)N3CCc4c(sc(C(=O)Nc5c(C)cccc5F)c4Cl)-c4ccccc43)cc2)c1` [Example 268]: the EC50 was less than 10 nM.

On to `Cc1cnc(N2CC3(CCOCC3)C2)c(C(=O)Nc2ccc(C(=O)N3CCc4c(sc(C(=O)Nc5ccccc5Cl)c4Cl)-c4ccccc43)cc2)c1` [Example 269], for which the EC50 is 10 to 50 nM.

For `Cc1cnc(N2CC3(CCOCC3)C2)c(C(=O)Nc2ccc(C(=O)N3CCc4c(sc(C(=O)Nc5ccccc5F)c4Cl)-c4ccccc43)cc2)c1` [Example 270], the EC50 is less than 10 nM.

On to `Cc1cnc(N2CC3(CCOCC3)C2)c(C(=O)Nc2ccc(C(=O)N3CCc4c(sc(C(=O)Nc5c(C)cccc5C)c4Cl)-c4ccccc43)cc2)c1` [Example 271], for which the EC50 lay in the range of 10 to 50 nM.

Regarding `Cc1cnc(N2CC3(CCOCC3)C2)c(C(=O)Nc2ccc(C(=O)N3CCc4c(sc(-c5nc6ccccc6[nH]5)c4Cl)-c4ccccc43)cc2)c1` [Example 272], the EC50 was less than 10 nM.

For the compound `Cc1cnc(N2CC3(CCOCC3)C2)c(C(=O)Nc2ccc(C(=O)N3CCc4c(sc(-c5nc6ccccc6[nH]5)c4C)-c4ccccc43)cc2)c1` [Example 273], the half-maximal effective concentration (EC50) is 10 to 50 nM.

As to `Cc1cnc(N2CC3(CCOCC3)C2)c(C(=O)Nc2ccc(C(=O)N3CCc4c(sc(C(=O)Nc5c(F)cccc5F)c4C)-c4ccccc43)cc2)c1` [Example 274], the EC50 is less than 10 nM.

Turning to `Cc1cnc(N2CC3(CCOCC3)C2)c(C(=O)Nc2ccc(C(=O)N3CCc4cc(NC(=O)c5c(F)cccc5F)sc4-c4ccccc43)cc2)c1` [Example 275], the concentration for a half-maximal effect (EC50) was less than 10 nM.

In the case of `Cc1ccc(C(=O)Nc2ccc(C(=O)N3CCc4cc(C(=O)Nc5c(C)cccc5F)sc4-c4ccccc43)cc2)c(N2CC3(CCOCC3)C2)n1` [Example 276], the EC50 was 10 to 50 nM.

For `Cc1ccc(C(=O)Nc2ccc(C(=O)N3CCc4cc(NC(=O)c5c(F)cccc5Cl)sc4-c4ccccc43)cc2)c(N2CC3(CCOCC3)C2)n1` [Example 277], the EC50 was 10 to 50 nM.

`Cc1ccc(C(=O)Nc2ccc(C(=O)N3CCc4cc(NC(=O)c5ncccc5F)sc4-c4ccccc43)cc2)c(N2CC3(CCOCC3)C2)n1` [Example 278]: the EC50 is less than 10 nM.

As to `Cc1cnc(N2CC3(CCOCC3)C2)c(C(=O)Nc2ccc(C(=O)N3CCc4cc(NC(=O)c5c(C)cccc5F)sc4-c4ccccc43)cc2)c1` [Example 281], the EC50 fell in the range of 10 to 50 nM.

Consider `Cc1cnc(N2CC3(CCOCC3)C2)c(C(=O)Nc2ccc(C(=O)N3CCc4cc(NC(=O)c5c(F)cccc5Cl)sc4-c4ccccc43)cc2)c1` [Example 282], for which the EC50 is less than 10 nM.

Consider `Cc1cnc(N2CC3(CCOCC3)C2)c(C(=O)Nc2ccc(C(=O)N3CCc4cc(NC(=O)c5ncccc5F)sc4-c4ccccc43)cc2)c1` [Example 283], for which the EC50 is less than 10 nM.

Regarding `Cc1cnc(N2CC3(CCOCC3)C2)c(C(=O)Nc2ccc(C(=O)N3CCc4cc(NC(=O)c5ccccc5)sc4-c4ccccc43)cc2)c1` [Example 284], the concentration for a half-maximal effect (EC50) was less than 10 nM.

In the case of `Cc1cnc(N2CC3(CCOCC3)C2)c(C(=O)Nc2ccc(C(=O)N3CCc4cc(NC(=O)c5ccccc5F)sc4-c4ccccc43)cc2)c1` [Example 285], the EC50 is less than 10 nM.

With `Cc1cnc(N2CC3(CCOCC3)C2)c(C(=O)Nc2ccc(C(=O)N3CCc4cc(NC(=O)c5c(C)cccc5C)sc4-c4ccccc43)cc2)c1` [Example 286], the EC50 was in the range of 10 to 50 nM.

Consider `Cc1cnc(N2CC3(CCOCC3)C2)c(C(=O)Nc2ccc(C(=O)N3CCc4cc(NC(=O)c5c(F)cccc5C(F)(F)F)sc4-c4ccccc43)cc2)c1` [Example 287], for which the EC50 is 10 to 50 nM.

For `Cc1cnc(N2CC3(CCOCC3)C2)c(C(=O)Nc2ccc(C(=O)N3CCc4cc(NS(=O)(=O)c5c(F)cccc5F)sc4-c4ccccc43)cc2)c1` [Example 288], the EC50 was greater than 50 nM.

With `Cc1cnc(N2CC3(CCOCC3)C2)c(C(=O)Nc2ccc(C(=O)N3CCc4cc(NS(=O)(=O)c5c(C)cccc5F)sc4-c4ccccc43)cc2)c1` [Example 289], the EC50 is greater than 50 nM.

Consider `Cc1cnc(N2CC3(CCOCC3)C2)c(C(=O)Nc2ccc(C(=O)N3CCc4cc(NS(=O)(=O)c5ccccc5F)sc4-c4ccccc43)cc2)c1` [Example 290], for which the EC50 was greater than 50 nM.

Regarding `Cc1cnc(N2CC3(CCOCC3)C2)c(C(=O)Nc2ccc(C(=O)N3CCc4cc(NS(=O)(=O)c5c(F)cccc5Cl)sc4-c4ccccc43)cc2)c1` [Example 291], the EC50 is greater than 50 nM.

Take `Cc1cnc(N2CC3(CCOCC3)C2)c(C(=O)Nc2ccc(C(=O)N3CCc4cc(NC(=O)OC5CCC5)sc4-c4ccccc43)cc2)c1` [Example 292]: the EC50 is less than 10 nM.

Turning to `Cc1cnc(N2CC3(CCOCC3)C2)c(C(=O)Nc2ccc(C(=O)N3CCc4cc(NC(=O)OC5CCCC5)sc4-c4ccccc43)cc2)c1` [Example 293], the EC50 fell in the range of 10 to 50 nM.

As for `Cc1cnc(N2CC3(CCOCC3)C2)c(C(=O)Nc2ccc(C(=O)N3CCc4cc(NC(=O)OC5CCCCC5)sc4-c4ccccc43)cc2)c1` [Example 294], the EC50 lay in the range of 10 to 50 nM.

With `Cc1cnc(N2CC3(CCOCC3)C2)c(C(=O)Nc2ccc(C(=O)N3CCc4cc(NC(=O)OCC(F)(F)F)sc4-c4ccccc43)cc2)c1` [Example 295], the EC50 is less than 10 nM.

Take `Cc1cnc(N2CC3(CCOCC3)C2)c(C(=O)Nc2ccc(C(=O)N3CCc4cc(NC(=O)Oc5ccccc5)sc4-c4ccccc43)cc2)c1` [Example 296]: the EC50 was 10 to 50 nM.

For `Cc1cnc(N2CC3(CCOCC3)C2)c(C(=O)Nc2ccc(C(=O)N3CCc4cc(NC(=O)OC(C)C)sc4-c4ccccc43)cc2)c1` [Example 297], the EC50 was less than 10 nM.

Turning to `Cc1ccc(C(=O)Nc2ccc(C(=O)N3CCc4cc(NC(=O)OC5CCC5)sc4-c4ccccc43)cc2)c(N2CC3(CCOCC3)C2)n1` [Example 298], the EC50 lay in the range of 10 to 50 nM.

Regarding `Cc1ccc(C(=O)Nc2ccc(C(=O)N3CCc4cc(NC(=O)OC5CCCC5)sc4-c4ccccc43)cc2)c(N2CC3(CCOCC3)C2)n1` [Example 299], the 50% effective concentration (EC50) was in the range of 10 to 50 nM.

Take `Cc1ccc(C(=O)Nc2ccc(C(=O)N3CCc4cc(NC(=O)OC5CCCCC5)sc4-c4ccccc43)cc2)c(N2CC3(CCOCC3)C2)n1` [Example 300]: the EC50 is greater than 50 nM.

Consider `Cc1ccc(C(=O)Nc2ccc(C(=O)N3CCc4cc(NC(=O)OCC(F)(F)F)sc4-c4ccccc43)cc2)c(N2CC3(CCOCC3)C2)n1` [Example 301], for which the EC50 was in the range of 10 to 50 nM.

With `Cc1ccc(C(=O)Nc2ccc(C(=O)N3CCc4c(sc(NC(=O)c5c(F)cccc5F)c4F)-c4ccccc43)cc2)c(N2CC3(CCOCC3)C2)n1` [Example 303], the EC50 fell in the range of 10 to 50 nM.

Consider `Cc1cnc(N2CC3(CCOCC3)C2)c(C(=O)Nc2ccc(C(=O)N3CCc4c(sc(NC(=O)c5c(F)cccc5F)c4F)-c4ccccc43)cc2)c1` [Example 304], for which the EC50 is less than 10 nM.

For the compound `Cc1cnc(N2CC3(CCOCC3)C2)c(C(=O)Nc2ccc(C(=O)N3CCc4c(sc(NC(=O)c5c(F)cccc5Cl)c4F)-c4ccccc43)cc2)c1` [Example 305], the EC50 was less than 10 nM.

On to `Cc1cnc(N2CC3(CCOCC3)C2)c(C(=O)Nc2ccc(C(=O)N3CCc4c(sc(NC(=O)c5c(F)cncc5F)c4F)-c4ccccc43)cc2)c1` [Example 306], for which the EC50 was less than 10 nM.

In the case of `Cc1cnc(N2CC3(CCOCC3)C2)c(C(=O)Nc2ccc(C(=O)N3CCc4c(sc(NC(=O)c5ccccc5F)c4F)-c4ccccc43)cc2)c1` [Example 307], the EC50 was less than 10 nM.

In the case of `Cc1ccc(C(=O)Nc2ccc(C(=O)N3CCc4c(sc(NC(=O)c5c(C)cccc5F)c4F)-c4ccccc43)cc2)c(N2CC3(CCOCC3)C2)n1` [Example 308], the EC50 lay within 10 to 50 nM.

For `Cc1ccc(C(=O)Nc2ccc(C(=O)N3CCc4c(sc(NC(=O)c5c(F)cccc5Cl)c4F)-c4ccccc43)cc2)c(N2CC3(CCOCC3)C2)n1` [Example 309], the EC50 lay in the range of 10 to 50 nM.

Take `Cc1ccc(C(=O)Nc2ccc(C(=O)N3CCc4c(sc(NC(=O)c5c(Cl)cccc5Cl)c4F)-c4ccccc43)cc2)c(N2CC3(CCOCC3)C2)n1` [Example 310]: the EC50 fell in the range of 10 to 50 nM.

With `Cc1ccc(C(=O)Nc2ccc(C(=O)N3CCc4c(sc(NC(=O)c5ccccc5F)c4F)-c4ccccc43)cc2)c(N2CC3(CCOCC3)C2)n1` [Example 311], the EC50 lay within 10 to 50 nM.

The same assay, now with this note: human respiratory syncytial virus, HEp-2, 96 h, read-out: Human RSV-A (“Long” strain) EC50.
Consider `Cc1ccc(C(=O)Nc2ccc(C(=O)N3CCc4cc(NC(=O)Oc5ccccc5)sc4-c4ccccc43)cc2)c(N2CC3(CCOCC3)C2)n1` [Example 302], for which the EC50 is greater than 50 nM.
